Values of other authors in US6806274B1, “Quinazoline derivatives” (AstraZeneca UK Limited, priority 1999, dated 2004).

Molecular target: EGF RTK (Homo sapiens, UniProt P00533)
Details: Bioorganic & Medicinal Chemistry Letters, 1997, 7, 2723-2728

Chain of EGF RTK (P00533 25-1210): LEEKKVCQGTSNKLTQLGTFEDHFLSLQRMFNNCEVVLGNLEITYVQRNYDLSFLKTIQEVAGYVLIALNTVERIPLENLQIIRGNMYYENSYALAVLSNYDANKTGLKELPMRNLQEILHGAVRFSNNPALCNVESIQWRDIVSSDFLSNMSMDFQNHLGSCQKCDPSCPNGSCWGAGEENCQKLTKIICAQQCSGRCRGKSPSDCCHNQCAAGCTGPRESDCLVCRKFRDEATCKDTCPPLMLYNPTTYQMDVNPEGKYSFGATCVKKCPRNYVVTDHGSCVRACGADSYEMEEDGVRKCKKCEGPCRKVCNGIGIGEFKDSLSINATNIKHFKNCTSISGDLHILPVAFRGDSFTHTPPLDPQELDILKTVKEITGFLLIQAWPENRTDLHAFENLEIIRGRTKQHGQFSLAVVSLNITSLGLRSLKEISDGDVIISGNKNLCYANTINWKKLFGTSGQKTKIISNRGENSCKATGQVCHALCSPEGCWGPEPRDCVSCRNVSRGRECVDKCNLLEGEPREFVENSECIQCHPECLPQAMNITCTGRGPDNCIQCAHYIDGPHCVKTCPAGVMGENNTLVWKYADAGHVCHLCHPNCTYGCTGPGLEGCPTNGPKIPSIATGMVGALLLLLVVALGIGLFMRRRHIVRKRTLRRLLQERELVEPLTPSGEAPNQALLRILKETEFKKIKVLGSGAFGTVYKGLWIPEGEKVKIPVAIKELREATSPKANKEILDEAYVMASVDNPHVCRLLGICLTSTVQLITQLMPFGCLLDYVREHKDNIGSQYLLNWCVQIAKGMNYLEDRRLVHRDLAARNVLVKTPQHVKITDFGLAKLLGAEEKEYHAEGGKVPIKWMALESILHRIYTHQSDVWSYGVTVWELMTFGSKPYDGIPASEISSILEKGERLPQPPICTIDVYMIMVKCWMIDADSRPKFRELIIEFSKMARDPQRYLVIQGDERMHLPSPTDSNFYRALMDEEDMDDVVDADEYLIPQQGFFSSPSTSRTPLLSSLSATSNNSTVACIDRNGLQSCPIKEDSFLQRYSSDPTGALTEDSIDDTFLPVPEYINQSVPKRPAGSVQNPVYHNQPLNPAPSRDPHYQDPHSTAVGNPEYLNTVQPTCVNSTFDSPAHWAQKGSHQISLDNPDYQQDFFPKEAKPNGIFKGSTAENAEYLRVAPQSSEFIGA

activity as an EGF RTK inhibitor: inactive
SMILES: COc1cc2ncnc(NC(=O)Nc3ccccc3)c2cc1OC [1-(6,7-dimethoxyquinazolin-4-yl)-3-phenylurea]
